Results filed as inconclusive are left out.
System: Lewis lung carcinoma i.m., BDF1 mice, T/C %
Assay: NCI In Vivo Anticancer Drug Screen. Data for tumor model Lewis Lung Carcinoma (intramuscular) in B6D2F1 (BDF1) mice
How it was run: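 Antitumour activity is assessed in transplanted-tumour mice. Endpoint is survival or tumour size, normalised to vehicle-dosed controls (T/C).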

`CC(C)S(=O)(=O)/C(Cl)=C(/Cl)C(Cl)=C(Cl)Cl` was tested, and the T/C (endpoint: mean tumor weight, dose: 25.0 mg/kg/injection, schedule: Q01DX011 (ip), vehicle: sodium bicarbonate, higher = larger tumour) was 111 % of control, the T/C (endpoint: mean tumor weight, dose: 50.0 mg/kg/injection, schedule: Q01DX011 (ip), vehicle: sodium bicarbonate, higher = larger tumour) was 117 % of control and the T/C (endpoint: mean tumor weight, dose: 100.0 mg/kg/injection, schedule: Q01DX011 (ip), vehicle: sodium bicarbonate, higher = larger tumour) was 100 % of control. The T/C (endpoint: median survival time, dose: 50.0 mg/kg/injection, schedule: Q01DX011 (ip), vehicle: sodium bicarbonate, higher = longer survival) was 87 % of control.

With `CCCC(=O)Nc1ncnc2c1ncn2C1OC2COP(=O)(O)OC2C1OC(=O)CCC` (stereo not given) the T/C (endpoint: mean tumor weight, dose: 25.0 mg/kg/injection, schedule: Q01DX011 (ip), vehicle: saline, higher = larger tumour) was 107 % of control, the T/C (endpoint: mean tumor weight, dose: 50.0 mg/kg/injection, schedule: Q01DX011 (ip), vehicle: saline, higher = larger tumour) was 106 % of control and the T/C (endpoint: mean tumor weight, dose: 100.0 mg/kg/injection, schedule: Q01DX011 (ip), vehicle: saline, higher = larger tumour) was 114 % of control. For the same compound, the T/C (endpoint: mean tumor weight, dose: 200.0 mg/kg/injection, schedule: Q01DX011 (ip), vehicle: saline, higher = larger tumour) was 96 % of control, the T/C (endpoint: mean tumor weight, dose: 400.0 mg/kg/injection, schedule: Q01DX011 (ip), vehicle: saline, higher = larger tumour) was 90 % of control and the T/C (endpoint: median survival time, dose: 25.0 mg/kg/injection, schedule: Q01DX011 (ip), vehicle: saline, higher = longer survival) was 118 % of control. For the same compound, the T/C (endpoint: median survival time, dose: 50.0 mg/kg/injection, schedule: Q01DX011 (ip), vehicle: saline, higher = longer survival) was 118 % of control, the T/C (endpoint: median survival time, dose: 100.0 mg/kg/injection, schedule: Q01DX011 (ip), vehicle: saline, higher = longer survival) was 100 % of control and the T/C (endpoint: median survival time, dose: 400.0 mg/kg/injection, schedule: Q01DX011 (ip), vehicle: saline, higher = longer survival) was 104 % of control.

`NCCCNCCSP(=O)(O)O` was tested, and the T/C (endpoint: median survival time, dose: 300.0 mg/kg/injection, schedule: Q01DX001 (ip), vehicle: saline, higher = longer survival) was 102 % of control and the T/C (endpoint: median survival time, dose: 500.0 mg/kg/injection, schedule: Q01DX001 (ip), vehicle: saline, higher = longer survival) was 92 % of control.

For `NC(Cc1c[nH]c2ccc(N(CCCl)CCCl)cc12)C(=O)O` (stereo not given), the T/C (endpoint: mean tumor weight, dose: 0.06 mg/kg/injection, schedule: Q01DX011 (ip), vehicle: other, higher = larger tumour) was 90 % of control, the T/C (endpoint: mean tumor weight, dose: 0.12 mg/kg/injection, schedule: Q01DX011 (ip), vehicle: other, higher = larger tumour) was 96 % of control and the T/C (endpoint: mean tumor weight, dose: 0.25 mg/kg/injection, schedule: Q01DX011 (ip), vehicle: other, higher = larger tumour) was 105 % of control. For the same compound, the T/C (endpoint: mean tumor weight, dose: 0.5 mg/kg/injection, schedule: Q01DX011 (ip), vehicle: other, higher = larger tumour) was 97 % of control, the T/C (endpoint: mean tumor weight, dose: 1.0 mg/kg/injection, schedule: Q01DX011 (ip), vehicle: other, higher = larger tumour) was 83 % of control and the T/C (endpoint: mean tumor weight, dose: 2.0 mg/kg/injection, schedule: Q01DX011 (ip), vehicle: other, higher = larger tumour) was 103 % of control. The T/C (endpoint: median survival time, dose: 0.06 mg/kg/injection, schedule: Q01DX011 (ip), vehicle: other, higher = longer survival) was 94 % of control, the T/C (endpoint: median survival time, dose: 0.12 mg/kg/injection, schedule: Q01DX011 (ip), vehicle: other, higher = longer survival) was 102 % of control and the T/C (endpoint: median survival time, dose: 0.25 mg/kg/injection, schedule: Q01DX011 (ip), vehicle: acid diluted with saline, higher = longer survival) was 89 % of control. The T/C (endpoint: median survival time, dose: 0.25 mg/kg/injection, schedule: Q01DX011 (ip), vehicle: other, higher = longer survival) was 86 % of control, the T/C (endpoint: median survival time, dose: 0.5 mg/kg/injection, schedule: Q01DX011 (ip), vehicle: acid diluted with saline, higher = longer survival) was 105 % of control and the T/C (endpoint: median survival time, dose: 0.5 mg/kg/injection, schedule: Q01DX011 (ip), vehicle: other, higher = longer survival) was 96 % of control. For the same compound, the T/C (endpoint: median survival time, dose: 1.0 mg/kg/injection, schedule: Q01DX011 (ip), vehicle: other, higher = longer survival) was 104 % of control.

For `CCN(CCO)CCNc1ccc(C)c2sc3ccccc3c(=O)c12`, the T/C (endpoint: mean tumor weight (est.), dose: 21.0 mg/kg/injection, schedule: Q01DX011 (ip), vehicle: saline, higher = larger tumour) was 69 % of control, the T/C (endpoint: mean tumor weight (est.), dose: 42.0 mg/kg/injection, schedule: Q01DX011 (ip), vehicle: saline, higher = larger tumour) was 44 % of control and the T/C (endpoint: median survival time, dose: 21.0 mg/kg/injection, schedule: Q01DX011 (ip), vehicle: saline, higher = longer survival) was 104 % of control. The T/C (endpoint: median survival time, dose: 42.0 mg/kg/injection, schedule: Q01DX011 (ip), vehicle: saline, higher = longer survival) was 110 % of control.

For `O=c1[nH]cc(F)c(=O)n1C1OC(CO)C(O)C1O` (stereo not given), the T/C (endpoint: mean tumor weight (est.), dose: 75.0 mg/kg/injection, schedule: Q01DX011 (ip), vehicle: saline, higher = larger tumour) was 67 % of control, the T/C (endpoint: mean tumor weight (est.), dose: 150.0 mg/kg/injection, schedule: Q01DX011 (ip), vehicle: saline, higher = larger tumour) was 99 % of control and the T/C (endpoint: mean tumor weight (est.), dose: 300.0 mg/kg/injection, schedule: Q01DX011 (ip), vehicle: saline, higher = larger tumour) was 106 % of control. The T/C (endpoint: mean tumor weight (est.), dose: 600.0 mg/kg/injection, schedule: Q01DX011 (ip), vehicle: saline, higher = larger tumour) was 82 % of control, the T/C (endpoint: mean tumor weight (est.), dose: 1200.0 mg/kg/injection, schedule: Q01DX011 (ip), vehicle: saline, higher = larger tumour) was 84 % of control and the T/C (endpoint: median survival time, dose: 75.0 mg/kg/injection, schedule: Q01DX011 (ip), vehicle: saline, higher = longer survival) was 107 % of control. For the same compound, the T/C (endpoint: median survival time, dose: 600.0 mg/kg/injection, schedule: Q01DX011 (ip), vehicle: saline, higher = longer survival) was 98 % of control and the T/C (endpoint: median survival time, dose: 1200.0 mg/kg/injection, schedule: Q01DX011 (ip), vehicle: saline, higher = longer survival) was 107 % of control.

Source: PubChem BioAssay AID272 (DTP/NCI, 2004)
